In patent publication US20060106028A1, “Polycyclic aromatics and derivatives thereof and processes for their preparation” (priority 2004, published 2006) one finds GI50, MIC and Antibacterial activity data, which are given here for three molecules.

As usually defined, the GI50 is the concentration that inhibits growth by half. The MIC is the lowest concentration that inhibits growth of the organism.

Common to all, as to type: cell-based
For test [1], the system named is HT-29 (colorectal carcinoma). Nature of the test: In vitro tumor growth inhibition (GI50, propidium iodide). The following applies: Homo sapiens, 96 hrs.
Test [2] deals with MDA-MB-231 (mammary gland adenocarcinoma). Described as above. The following applies: Homo sapiens, 96 hrs.
Test [3] has as its system PC-3 (prostate adenocarcinoma). The description is as above. The settings on record: 96 hrs.
The test system of the next test is SF268 (CNS). The description is as above. The settings on record: Homo sapiens; SF-268; 96 hrs.
Test [4] has as its system Staphylococcus aureus (ATCC™ 6538P). Briefly: Antibacterial activity, MIC (NCCLS M7-A5). The settings on record: MH medium, 35° C., 16 to 20 hours.
In test [5] the test system is Staphylococcus aureus MRS3 (ATCC™ 700699). Briefly: Antibacterial activity, MIC (NCCLS M7-A5). The following applies: MH medium, 35° C., 16 to 20 hours.
Test [6] relates to Enterococcus faecalis VRE-1 (ATCC™ 29212). Briefly: Antibacterial activity, MIC (NCCLS M7-A5). The following applies: BHI+ medium.
For test [7], the system named is Enterococcus faecalis VRE-2 (ATCC™ 51299). Briefly: Antibacterial activity, MIC (NCCLS M7-A5). The following applies: BHI+ medium, 35° C., 16 to 20 hours.
Test [8] relates to Streptococcus pneumoniae (LSPQ 3412). Briefly: Antibacterial activity, MIC (NCCLS M7-A5). The settings on record: MH medium +2% lysed horse blood.
Test [9] relates to Streptococcus pneumoniae PenR (LSPQ 3349). Nature of the test: Antibacterial activity, MIC (NCCLS M7-A5). The following applies: MH medium +2% lysed horse blood.
The subject of test [10] is Clostridium difficile (ATCC™ 9689). Briefly: Antibacterial activity, MIC (NCCLS M11-A5, anaerobic). The following applies: Clostridioides difficile. As for the experimental part: Antibacterial activity of Compounds 1 and 2 (Table 7) was measured by determining the minimal inhibitory concentration (MIC) necessary to obtain a complete inhibition of bacteria growth in seven indicator strains, namely Staphylococcus aureus (ATCC™ 6538P), Staphylococcus aureus MRS3 (ATCC™ 700699), Enterococcus faecalis VRE-1 (ATCC™ 29212), Enterococcus faecalis VRE-2 (ATCC™ 51299), Escherichia coli (ATCC™ 25922), Streptococcus pneumoniae (LSPQ 3412) and Streptococcus pneumoniae PenR (LSPQ 3349). Indicator strains preparation and MIC determination were performed according to the National Committee for Clinical Laboratory Standards (NCCLS) guideline M7-A5 Methods for Dilution Antimicrobial Susceptibility Tests for Bacteria That Grow Aerobically; Approved Standard-Fifth Edition. (NCCLS document M7-A5, ISBN 1-56238-394-9; NCCLS, 940 West Valley Road, Suite 1400, Wayne, Pa. 19087-1898 USA), the content of which is incorporated herein by reference. MIC determination against C. difficile was performed according to National Committee for Clinical Laboratory Standards (NCCLS) guideline M11-A5 Methods for Antimicrobial Susceptibility Testing of Anaerobic Bacteria.
Compounds 1 and 2 were prepared as 100× stock solutions in DMSO, with concentrations ranging from 3.2 mg/mL to 0.003 mg/mL (a two-fold dilution series over 11 points). An aliquot of each 100× stock solution was diluted 50-fold in test medium described below to give a set of eleven (11) 2× solutions. 50 μL of each of the eleven 2× solutions was aliquoted into the corresponding well of a 12-well row, with the final well reserved for medium alone control.
Vancomycin (Sigma™), used as positive control compound, was prepared as 2× stock solutions in Mueller-Hinton test medium ranging from 64 μg/mL to 0.06 μg/ml (a two-fold dilution series over 11 points). An aliquot of 50 μL corresponding to each concentration (at 2×) was then transferred to 96-well microplates to obtain a series of eleven two-fold dilutions.
An isolated colony of each of the indicator strains was used to inoculate tubes containing 2 mL of test medium. […]

Test [11] relates to Escherichia coli (ATCC™ 25922). Nature of the test: Antibacterial activity (NCCLS M7-A5). The following applies: MH medium.
In test [12] the test system is Saccharomyces cerevisiae FHCRC-50014. Nature of the test: Antifungal activity, MIC (NCCLS M27-A). The following applies: FHCRC50014, after 24 hours, YPD medium. The procedure: (§1) Testing of antifungal activity was performed according to NCCLS method (NCCLS. Reference Method for Broth Dilution Antifungal Susceptibility Testing of Yeasts; Approved Standard. NCCLS document M27-A (ISBN 1-56238-328-0). NCCLS, 940 West Valley Road, Suite 1400, Wayne, Pa. 19087-1898 USA; www.nccls.org.). Compound 1 was prepared as 100× stock solutions in DMSO, with concentrations ranging from 3.2 mg/mL to 0.003 mg/mL (a two-fold dilution series over 11 points). An aliquot of each 100× stock solution was diluted 50-fold in test medium described below to give a set of eleven (11) 2× solutions. 50 μL of each of the eleven 2× solutions was aliquoted into the corresponding well of a 12-well row, with the final well reserved for medium alone control. Inoculum density for each indicator strain was adjusted to OD600=0.1 in 5 mL 0.85% saline, then further diluted 1/1000 in YPD medium. 50 μL of the final dilution (in test medium) of each indicator strain was added to each well of a 12-well row. This brings the final dilution of the test article or control compound in solution to 1×. The final inoculum was approximately 5×10^4 CFU/ml.
(§2) Bacterial strains Streptococcus pneumoniae LSPQ 3412 and LSPQ 3349 were obtained from the “Laboratoire de Sante Publique du Quebec”. Saccharomyces cerevisiae FHCRC-50014 and FHCRC-50514 were obtained from the “Fred Hutchison Cancer Research Center”.

The subject of test [13] is Saccharomyces cerevisiae FHCRC-50514. Briefly: Antifungal activity, MIC (NCCLS M27-A). The settings on record: FHCRC50514, after 24 hours, YPD medium. The procedure: as §1, §2

SMILES strings stand for the structures. ≈ marks a conversion by molar mass, not a printed value. Where two headings read alike, the source gives them in different places.

On to `CCC(C)c1cc2c(=O)c3ccc4c(OC)c5c(=O)c6c(O)ccc(O)c6c(=O)c5c(O)c4c3c(=O)c2c(=O)n1CC(=O)N1CC(C(=O)OC)NC(=O)C1C` (stereo not shown) [Compound 2], for which the GI50 amounted to 16.1 µM in [1], 4.04 µM in test [2], 4.61 µM in test [3] and 2.63 µM in the test with SF268 (CNS). Besides, the MIC came out at 0.0625 µg/mL (≈ 0.0831 µM) in test [4]; 0.125 µg/mL (≈ 0.166 µM) in [5]; 1 µg/mL (≈ 1.33 µM) in test [6] (35° C., 16 to 20 hours); 1 µg/mL (≈ 1.33 µM) in test [7]; 1 µg/mL (≈ 1.33 µM) in test [8]; 1 µg/mL (≈ 1.33 µM) in [9]. The MIC in test [10] (Brucella medium with hemin, vitamin K1 and 5% lysed horse blood, read-out: MIC) was found to be 2 µg/mL (≈ 2.66 µM). The Antibacterial activity entry in test [11] is “inactive”.
For the molecule `CN[C@H](CC(C)C)C(=O)N[C@H]1C(=O)N[C@@H](CC(N)=O)C(=O)N[C@H]2C(=O)N[C@H]3C(=O)N[C@H](C(=O)N[C@H](C(=O)O)c4cc(O)cc(O)c4-c4cc3ccc4O)[C@H](O)c3ccc(c(Cl)c3)Oc3cc2cc(c3O[C@@H]2O[C@H](CO)[C@@H](O)[C@H](O)[C@H]2O[C@H]2C[C@](C)(N)[C@H](O)[C@H](C)O2)Oc2ccc(cc2Cl)[C@H]1O` [Vancomycin, reference compound], the minimal inhibitory concentration (MIC) turned out to be 1 µg/mL (≈ 0.69 µM) in test [4]; 4 µg/mL (≈ 2.76 µM) in [5]; 8 µg/mL (≈ 5.52 µM) in [6] (35° C., 16 to 20 hours); 4 µg/mL (≈ 2.76 µM) in [6] (when tested as control with Compound 2); 32 µg/mL (≈ 22.1 µM) in [7]; 0.5 µg/mL (≈ 0.345 µM) in test [8]. In addition, the minimal inhibitory concentration (MIC) in test [9] and in [10] was 0.5 µg/mL (≈ 0.345 µM) each time.
For the molecule `OC(Cn1cncn1)(Cn1cncn1)c1ccc(F)cc1F` [Fluconazole, reference compound], the values for the MIC in [12] and in [13] were 8 µg/mL (≈ 26.1 µM) and 0.25 to 0.5 µg/mL (≈ 0.816 to 1.63 µM), respectively.
